The values below are quoted from earlier work in US9237750B2, “Ornidazole and related compounds for use as herbicides” (RAMOT AT TEL-AVIV UNIVERSITY LTD., priority 2012, dated 2016).

The subject of the data set is ferredoxin-linked NADP+ reduction. The conditions noted are these: photosystem II non-operative, ascorbate as electron source, broken spinach chloroplasts, DCPIP; cited from earlier work.

On to `Cc1ncc([N+](=O)[O-])n1CCO` [Metronidazole, 1-β-hydroxyethyl-2-methyl-5-nitroimidazole], for which the “inhibition of ferredoxin-linked NADP+ reduction” value is “potent inhibitor”.
